Experimental data reported in ChEMBL document CHEMBL1136399, “Anti-AIDS agents 54. A potent anti-HIV chalcone and flavonoids from genus Desmos” (Bioorg Med Chem Lett, 2003).
Values after ≈ are worked out from the molar mass of the structure shown.

What was measured:
[1] = system: H9; assay: Effective concentration against HIV-1 replication in H9 lymphocytic cells; No suppression; format: functional, cell-based, Homo sapiens
[2] = system: H9; assay: Concentration that inhibits uninfected H9 cell growth by 50%.; format: functional, cell-based; conditions: Homo sapiens
[3] = system: H9; assay: Concentration that inhibits uninfected H9 cell growth by 50%.; Not dissolved; format: functional, cell-based, Homo sapiens
[4] = system: H9; assay: Effective concentration against HIV-1 replication in H9 lymphocytic cells; format: functional, cell-based; conditions: Homo sapiens
[5] = Therapeutic index determined by ratio of IC50 to EC50; conditions: read-out: Therapeutic index
[6] = system: H9; assay: Concentration that inhibits uninfected H9 cell growth by 50%.; Did not dissolve; format: functional, cell-based, Homo sapiens

| EC50 [1] | SMILES | IC50 [2] [µg/mL] | also measured |
| --- | --- | --- | --- |
| Not Active | COc1cc2oc(-c3ccccc3)cc(=O)c2c(O)c1O | 11.5 (≈ 40.5 µM) |  |
| Not Active | COc1c(C)c(O)c2c(=O)cc(-c3ccccc3)oc2c1C | 19.8 (≈ 66.8 µM) |  |
| Not Active | COc1c(C)c(O)c2c(c1C)O[C@H](c1ccccc1)CC2=O | 1.77 (≈ 5.93 µM) |  |
| Not Active | Cc1c(O)c(C=O)c2c(c1O)C(=O)C[C@@H](c1ccccc1)O2 | 2.15 (≈ 7.21 µM) |  |
| Not Active | COc1cc2oc(-c3ccccc3)cc(=O)c2c(O)c1OC [MOSLOFLAVONE] | 20.2 (≈ 67.7 µM) |  |

The next lines start with the molecule.

| SMILES | EC50 [1] | IC50 [2] [µg/mL] | also measured |
| --- | --- | --- | --- |
| CC1=C(O)C(C)(C)C2=C(C(=O)C[C@@H](c3ccccc3)O2)C1=O | Not Active | 1.89 (≈ 6.34 µM) |  |
| Cc1c(O)c(C=O)c2oc(-c3ccccc3)cc(=O)c2c1O |  |  | IC50 [3]: Insoluble |
| COc1c(C)c(O)c(/C(O)=C/C(=O)c2ccccc2)c(O)c1C=O |  | 10.7 (≈ 32.6 µM) | EC50 [4]: 0.022 µg/mL (≈ 0.067 µM); selectivity ratio [5]: 489 |
| Cc1c(O)c(C=O)c(O)c2c(=O)cc(-c3ccccc3)oc12 |  |  | IC50 [6]: Insoluble |
| COc1c(C)c(O)c(C=O)c2c1C(O)C[C@@H](c1ccccc1)O2 (stereo not given in full) | Not Active | 24.2 (≈ 77 µM) |  |
| Cc1c(O)c(C=O)c(O)c(/C(O)=C/C(=O)c2ccccc2)c1O | Not Active | 18.8 (≈ 59.8 µM) |  |
| Cc1c(O)c(C=O)c(O)c2c1O[C@H](c1ccccc1)CC2=O |  | 104 (≈ 349 µM) | EC50 [4]: 2.3 µg/mL (≈ 7.71 µM); selectivity ratio [5]: 45.2 |
| COc1c(C)c(O)c2c(c1C=O)O[C@@H](C)[C@H](C(=O)c1ccccc1)C2=O | Not Active | 18.9 (≈ 53.3 µM) |  |
| COc1c(C)c(O)c(C=O)c2c1C(=O)C[C@@H](c1ccccc1)O2 |  | 108 (≈ 346 µM) | EC50 [4]: 11 µg/mL (≈ 35.2 µM); selectivity ratio [5]: 9.85 |
| Cc1c(O)c(C)c2c(c1O)C(=O)C[C@@H](c1ccccc1)O2 [DEMETHOXYMATTEUCINOL] |  | 20.8 (≈ 73.2 µM) | EC50 [4]: 4.97 µg/mL (≈ 17.5 µM); selectivity ratio [5]: 4.18 |
| COC1=C(C)C(O)=C(C(=O)/C=C/c2ccccc2)C(=O)C1(C)C [DESMOSDUMOTIN C] | Not Active | 2.29 (≈ 7.33 µM) |  |
| Cc1cn([C@H]2C[C@H](N=[N+]=[N-])[C@@H](CO)O2)c(=O)[nH]c1=O [ZIDOVUDINE] |  |  | EC50 [4]: 0.0221 µg/mL (≈ 0.0827 µM) |
